Data from paper PMC11597150, “Antibacterial Activity of AXOTL-13, a Novel Peptide Identified from the Transcriptome of the Salamander Ambystoma mexicanum” (Pharmaceutics, 2024).
Converted amounts (≈) assume the structure as drawn. Where a SMILES comes first, the peptide text is derived from it.

Experiments:
[1] = test system: Escherichia coli ATCC 25922; format: cell-based; settings: for inhibitory effect on bacterial growth: microdilution in TSB, 8.7-70 μM, 20 h at 37 °C, absorbance 600 nm
Method: (§1) To establish the minimum inhibitory concentration (MIC), the microdilution-in-broth protocol for AMPs proposed by Wiegand et al. (2008) was performed. Bacterial strains Escherichia coli ATCC 25922 and Staphylococcus aureus ATCC 25923 were cultured in tryptic soy agar (TSA). For the assay, 5 bacterial colonies were taken, dissolved in tryptic soy broth (TSB), and incubated at 37 °C until reaching 0.5 on the McFarland scale (1 × 10^8 CFU/mL). Subsequently, a dilution was made to achieve a final concentration of 5 × 10^5 CFU/mL. A 96-well plate was used for the assay in which each bacterial strain was exposed to different concentrations of the peptides to be evaluated: 70 μM, 35 μM, 17.5 μM, and 8.7 μM. Different controls were employed: TSB medium served as the sterility control and blank; bacteria without treatment were utilized as the negative control; and bacteria exposed to the Ramosin peptide at 40 μM [31] and sodium hypochlorite at 0.06% were employed as positive controls. Each treatment was performed in triplicate, and each assay was carried out on two different days. The plate was incubated for 20 h at 37 °C in a Multiskan Sky (Thermo Fisher, Waltham, MA, USA), reading the absorbance at a wavelength of 600 nm every hour.
(§2) The results were read in two ways: an endpoint analysis in which the absorbances of the wells were read at 20 h of treatment, to determine the inhibitory effect of the peptide, and a bacterial growth kinetics analysis in which the behavior of the peptide throughout the assay was observed, identifying a bactericidal or bacteriostatic action.

[2] = test system: Staphylococcus aureus ATCC 25923; experiment: Broth microdilution MIC / growth inhibition; format: cell-based; settings: microdilution in TSB, 8.7-70 μM, 20 h at 37 °C, absorbance 600 nm
Method: as §1, §2

Row | Compound | minimum inhibitory concentration (MIC) ([1]; ATCC 25922, 20 h) | inhibitory effect on bacterial growth [1] | inhibitory effect on bacterial growth [2]
1 | CC[C@H](C)[C@H](NC(=O)[C@H](CO)NC(=O)[C@H](Cc1ccccc1)NC(=O)CN)C(=O)N[C@@H](CO)C(=O)N[C@@H](CC(C)C)C(=O)N[C@@H](CCCCN)C(=O)N[C@@H](CCCNC(=N)N)C(=O)N[C@@H](CC(C)C)C(=O)N[C@@H](CCC(N)=O)C(=O)N[C@@H](CCCCN)C(=O)N[C@@H](CCSC)C(=O)N[C@@H](CC(C)C)C(=O)O [AXOTL-13] (H-GFSISLKRLQKML-OH) | 35 µM (≈ 53.2 µg/mL) |  | 
2 | Peptide 4766: 13-residue peptide LIGGQLGGLIKAL predicted from the Ambystoma mexicanum transcriptome, chemically synthesized |  | did not exert a complete inhibitory effect | did not exert a complete inhibitory effect
3 | Peptide 4767: 13-residue peptide YITGLIAPILKSL predicted from the Ambystoma mexicanum transcriptome, chemically synthesized |  | did not exert a complete inhibitory effect | did not exert a complete inhibitory effect
4 | Peptide 4768: 12-residue peptide VLGSILGALKAI predicted from the Ambystoma mexicanum transcriptome, chemically synthesized |  | did not exert a complete inhibitory effect | did not exert a complete inhibitory effect
5 | Peptide 4769: 13-residue peptide LHPLIGRVIGGVI predicted from the Ambystoma mexicanum transcriptome, chemically synthesized |  | did not exert a complete inhibitory effect | did not exert a complete inhibitory effect
6 | Peptide 4771: 13-residue peptide LLDTIGKIFGSLL predicted from the Ambystoma mexicanum transcriptome, chemically synthesized |  | did not exert a complete inhibitory effect | did not exert a complete inhibitory effect
